Results taken from ChEMBL document CHEMBL4251714, “Isolation, Characterization, and Structure-Activity Relationship Analysis of Abietane Diterpenoids from Callicarpa bodinieri as Spleen Tyrosine Kinase Inhibitors” (J Nat Prod, 2018).

How the values were obtained:
[1] = biological target: T1, Tyrosine-protein kinase JAK3 (Homo sapiens, UniProt P52333); assay: Inhibition of JAK3 (unknown origin) by mobility shift assay
T1 sequence (P52333 whole entry): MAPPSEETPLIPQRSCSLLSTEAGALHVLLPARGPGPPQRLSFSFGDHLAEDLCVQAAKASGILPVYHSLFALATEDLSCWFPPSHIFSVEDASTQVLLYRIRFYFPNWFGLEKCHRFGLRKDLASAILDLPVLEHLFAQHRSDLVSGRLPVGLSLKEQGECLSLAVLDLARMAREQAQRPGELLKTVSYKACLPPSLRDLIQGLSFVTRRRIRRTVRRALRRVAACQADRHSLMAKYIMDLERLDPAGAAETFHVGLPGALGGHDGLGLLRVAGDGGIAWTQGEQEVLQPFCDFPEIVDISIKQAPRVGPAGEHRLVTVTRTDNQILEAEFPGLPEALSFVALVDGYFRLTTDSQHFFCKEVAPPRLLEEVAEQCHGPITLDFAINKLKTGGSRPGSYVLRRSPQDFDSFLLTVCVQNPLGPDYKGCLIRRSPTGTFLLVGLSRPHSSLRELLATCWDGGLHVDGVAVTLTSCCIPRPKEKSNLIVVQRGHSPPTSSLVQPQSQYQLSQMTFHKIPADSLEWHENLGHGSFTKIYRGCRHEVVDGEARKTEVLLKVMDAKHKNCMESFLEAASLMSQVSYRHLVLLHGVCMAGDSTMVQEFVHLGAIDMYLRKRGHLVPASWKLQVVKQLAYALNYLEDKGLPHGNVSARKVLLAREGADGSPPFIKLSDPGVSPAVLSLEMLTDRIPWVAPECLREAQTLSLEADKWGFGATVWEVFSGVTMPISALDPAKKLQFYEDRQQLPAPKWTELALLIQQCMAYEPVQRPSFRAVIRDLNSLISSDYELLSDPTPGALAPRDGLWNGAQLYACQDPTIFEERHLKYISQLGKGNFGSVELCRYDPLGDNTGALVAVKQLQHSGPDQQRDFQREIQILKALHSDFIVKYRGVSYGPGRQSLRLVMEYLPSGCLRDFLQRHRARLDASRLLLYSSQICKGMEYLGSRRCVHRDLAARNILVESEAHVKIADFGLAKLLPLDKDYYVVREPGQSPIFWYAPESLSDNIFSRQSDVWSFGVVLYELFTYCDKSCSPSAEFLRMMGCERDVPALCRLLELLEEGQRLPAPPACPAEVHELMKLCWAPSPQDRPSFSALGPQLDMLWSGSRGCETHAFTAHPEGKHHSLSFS

[2] = biological target: T2, Tyrosine-protein kinase ZAP-70 (Homo sapiens) (UniProt P43403); assay: Inhibition of ZAP70 (unknown origin) at 50 ug/ml by mobility shift assay relative to control
T2 sequence (whole entry): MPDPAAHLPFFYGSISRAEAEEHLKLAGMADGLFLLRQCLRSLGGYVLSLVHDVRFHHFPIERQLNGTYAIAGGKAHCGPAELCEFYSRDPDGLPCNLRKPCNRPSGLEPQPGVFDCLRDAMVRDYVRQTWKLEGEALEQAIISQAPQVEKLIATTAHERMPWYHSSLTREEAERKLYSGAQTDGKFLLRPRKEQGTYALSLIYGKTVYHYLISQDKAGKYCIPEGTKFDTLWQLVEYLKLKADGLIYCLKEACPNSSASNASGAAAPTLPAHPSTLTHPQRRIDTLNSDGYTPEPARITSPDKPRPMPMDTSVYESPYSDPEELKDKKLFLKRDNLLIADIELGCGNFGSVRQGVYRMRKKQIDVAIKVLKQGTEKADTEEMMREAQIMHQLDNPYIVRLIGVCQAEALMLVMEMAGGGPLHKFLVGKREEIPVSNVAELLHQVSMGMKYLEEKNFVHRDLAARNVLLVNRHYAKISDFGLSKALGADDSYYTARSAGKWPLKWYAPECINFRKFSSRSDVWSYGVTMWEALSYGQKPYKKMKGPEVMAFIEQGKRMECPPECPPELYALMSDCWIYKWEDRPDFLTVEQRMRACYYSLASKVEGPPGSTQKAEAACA

[3] = biological target: Protein kinase C theta (Homo sapiens) (UniProt Q04759); assay: Inhibition of PKCtheta (unknown origin) at 50 ug/ml by mobility shift assay relative to control
[4] = biological target: T3, 3-phosphoinositide-dependent protein kinase 1 (Homo sapiens) (UniProt O15530); assay: Inhibition of PDK1 (unknown origin) at 50 ug/ml by mobility shift assay relative to control
T3 sequence (whole entry): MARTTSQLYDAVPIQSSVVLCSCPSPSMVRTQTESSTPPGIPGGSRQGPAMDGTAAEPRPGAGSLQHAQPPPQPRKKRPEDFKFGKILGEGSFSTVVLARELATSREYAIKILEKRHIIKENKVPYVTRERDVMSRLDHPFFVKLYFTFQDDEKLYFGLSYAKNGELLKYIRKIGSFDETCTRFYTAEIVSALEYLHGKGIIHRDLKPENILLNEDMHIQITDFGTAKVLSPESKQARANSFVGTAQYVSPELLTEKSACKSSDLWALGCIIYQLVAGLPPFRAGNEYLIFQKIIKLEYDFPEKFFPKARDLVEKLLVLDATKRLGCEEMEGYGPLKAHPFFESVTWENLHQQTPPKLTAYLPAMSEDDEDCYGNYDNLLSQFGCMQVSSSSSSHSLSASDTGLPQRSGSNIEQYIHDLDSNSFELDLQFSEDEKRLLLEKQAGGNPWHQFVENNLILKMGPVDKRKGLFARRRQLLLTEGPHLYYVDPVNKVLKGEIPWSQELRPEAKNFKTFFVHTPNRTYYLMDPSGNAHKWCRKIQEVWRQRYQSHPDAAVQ

[5] = biological target: Serine/threonine-protein kinase B-raf (Homo sapiens) (UniProt P15056); assay: Inhibition of BRAF (unknown origin) at 50 ug/ml by Lanthascreen assay relative to control
Serine/threonine-protein kinase B-raf (Homo sapiens), sequence (P15056 whole entry): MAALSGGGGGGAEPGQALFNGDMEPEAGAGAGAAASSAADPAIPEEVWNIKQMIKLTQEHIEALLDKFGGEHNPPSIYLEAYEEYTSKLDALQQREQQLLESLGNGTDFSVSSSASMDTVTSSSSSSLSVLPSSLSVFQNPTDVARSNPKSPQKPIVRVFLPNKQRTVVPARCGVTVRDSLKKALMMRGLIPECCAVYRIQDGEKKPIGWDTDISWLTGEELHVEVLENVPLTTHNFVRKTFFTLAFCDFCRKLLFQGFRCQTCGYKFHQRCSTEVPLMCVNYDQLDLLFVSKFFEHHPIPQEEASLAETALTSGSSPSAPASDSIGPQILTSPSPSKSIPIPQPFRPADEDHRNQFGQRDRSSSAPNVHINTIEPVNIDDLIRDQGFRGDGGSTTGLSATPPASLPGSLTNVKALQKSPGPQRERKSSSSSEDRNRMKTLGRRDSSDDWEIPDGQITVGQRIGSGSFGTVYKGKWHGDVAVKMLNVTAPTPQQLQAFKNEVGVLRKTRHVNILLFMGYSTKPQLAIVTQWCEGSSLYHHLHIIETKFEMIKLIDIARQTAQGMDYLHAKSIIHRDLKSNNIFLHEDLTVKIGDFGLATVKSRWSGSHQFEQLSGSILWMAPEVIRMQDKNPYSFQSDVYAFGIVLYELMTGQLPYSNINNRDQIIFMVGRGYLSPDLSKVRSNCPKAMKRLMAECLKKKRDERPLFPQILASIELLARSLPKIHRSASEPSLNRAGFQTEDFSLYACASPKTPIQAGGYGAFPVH

[6] = biological target: RAC-alpha serine/threonine-protein kinase (Homo sapiens) (UniProt P31749); assay: Inhibition of AKT1 (unknown origin) at 50 ug/ml by mobility shift assay relative to control
RAC-alpha serine/threonine-protein kinase (Homo sapiens), sequence (P31749 whole entry): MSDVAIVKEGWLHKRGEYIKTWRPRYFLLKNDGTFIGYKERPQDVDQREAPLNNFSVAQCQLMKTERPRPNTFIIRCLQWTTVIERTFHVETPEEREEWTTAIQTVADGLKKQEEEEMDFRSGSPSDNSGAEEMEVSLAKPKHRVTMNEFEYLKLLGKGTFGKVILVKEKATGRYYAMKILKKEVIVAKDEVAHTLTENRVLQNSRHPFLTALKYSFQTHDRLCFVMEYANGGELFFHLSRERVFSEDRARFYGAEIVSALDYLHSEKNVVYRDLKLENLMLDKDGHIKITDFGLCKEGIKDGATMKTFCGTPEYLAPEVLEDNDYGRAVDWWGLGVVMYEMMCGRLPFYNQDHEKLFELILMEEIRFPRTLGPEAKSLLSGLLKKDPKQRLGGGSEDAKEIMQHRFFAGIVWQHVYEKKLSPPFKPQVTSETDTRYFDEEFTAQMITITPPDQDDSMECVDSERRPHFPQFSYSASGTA

[7] = biological target: Focal adhesion kinase 1 (Homo sapiens) (UniProt Q05397); assay: Inhibition of FAK (unknown origin) at 50 ug/ml by Lanthascreen assay relative to control
Focal adhesion kinase 1 (Homo sapiens), sequence (Q05397 2-1052 limits assumed): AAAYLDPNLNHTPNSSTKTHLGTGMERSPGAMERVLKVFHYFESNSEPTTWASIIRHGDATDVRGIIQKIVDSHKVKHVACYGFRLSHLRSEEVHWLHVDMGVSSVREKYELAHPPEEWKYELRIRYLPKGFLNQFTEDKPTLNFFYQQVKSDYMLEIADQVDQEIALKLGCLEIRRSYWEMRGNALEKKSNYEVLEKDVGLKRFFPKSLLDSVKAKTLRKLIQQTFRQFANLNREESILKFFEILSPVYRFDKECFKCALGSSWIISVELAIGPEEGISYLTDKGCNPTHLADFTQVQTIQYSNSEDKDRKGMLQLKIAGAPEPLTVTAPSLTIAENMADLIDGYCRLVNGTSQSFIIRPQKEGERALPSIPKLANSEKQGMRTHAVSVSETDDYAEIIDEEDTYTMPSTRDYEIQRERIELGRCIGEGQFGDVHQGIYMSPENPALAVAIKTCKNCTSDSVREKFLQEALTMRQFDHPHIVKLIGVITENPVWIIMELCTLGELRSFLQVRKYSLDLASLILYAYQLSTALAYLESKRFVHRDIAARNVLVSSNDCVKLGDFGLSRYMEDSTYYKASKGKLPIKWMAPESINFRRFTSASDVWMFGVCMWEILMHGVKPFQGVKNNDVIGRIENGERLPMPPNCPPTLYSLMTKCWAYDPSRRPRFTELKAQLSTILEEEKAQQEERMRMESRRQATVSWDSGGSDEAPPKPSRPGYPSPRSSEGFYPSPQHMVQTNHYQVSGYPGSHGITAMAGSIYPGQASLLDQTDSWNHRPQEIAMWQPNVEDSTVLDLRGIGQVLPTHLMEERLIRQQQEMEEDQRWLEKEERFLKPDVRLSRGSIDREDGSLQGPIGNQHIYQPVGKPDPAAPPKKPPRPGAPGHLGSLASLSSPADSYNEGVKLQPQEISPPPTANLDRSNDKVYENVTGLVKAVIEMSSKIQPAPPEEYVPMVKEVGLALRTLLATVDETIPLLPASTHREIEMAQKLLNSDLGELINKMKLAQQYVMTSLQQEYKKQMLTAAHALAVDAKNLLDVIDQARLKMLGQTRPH

[8] = biological target: Glycogen synthase kinase-3 beta (Homo sapiens) (UniProt P49841); assay: Inhibition of GSK3b (unknown origin) at 50 ug/ml by mobility shift assay relative to control
Glycogen synthase kinase-3 beta (Homo sapiens), sequence (P49841 whole entry, looked up): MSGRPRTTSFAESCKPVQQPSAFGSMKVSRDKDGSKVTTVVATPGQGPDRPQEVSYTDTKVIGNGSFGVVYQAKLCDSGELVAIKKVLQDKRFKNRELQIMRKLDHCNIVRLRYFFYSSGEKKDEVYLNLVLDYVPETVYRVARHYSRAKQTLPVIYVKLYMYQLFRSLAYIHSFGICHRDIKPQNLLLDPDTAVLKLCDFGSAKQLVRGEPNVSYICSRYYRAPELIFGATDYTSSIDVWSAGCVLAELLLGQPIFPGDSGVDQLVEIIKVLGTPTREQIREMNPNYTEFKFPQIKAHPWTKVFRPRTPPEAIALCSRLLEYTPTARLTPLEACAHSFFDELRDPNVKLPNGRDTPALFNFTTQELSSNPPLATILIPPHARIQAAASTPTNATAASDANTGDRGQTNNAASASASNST

[9] = biological target: Proto-oncogene tyrosine-protein kinase Src (Homo sapiens) (UniProt P12931); assay: Inhibition of SRC (unknown origin) at 50 ug/ml by mobility shift assay relative to control
Proto-oncogene tyrosine-protein kinase Src (Homo sapiens), sequence (P12931 2-536 limits assumed): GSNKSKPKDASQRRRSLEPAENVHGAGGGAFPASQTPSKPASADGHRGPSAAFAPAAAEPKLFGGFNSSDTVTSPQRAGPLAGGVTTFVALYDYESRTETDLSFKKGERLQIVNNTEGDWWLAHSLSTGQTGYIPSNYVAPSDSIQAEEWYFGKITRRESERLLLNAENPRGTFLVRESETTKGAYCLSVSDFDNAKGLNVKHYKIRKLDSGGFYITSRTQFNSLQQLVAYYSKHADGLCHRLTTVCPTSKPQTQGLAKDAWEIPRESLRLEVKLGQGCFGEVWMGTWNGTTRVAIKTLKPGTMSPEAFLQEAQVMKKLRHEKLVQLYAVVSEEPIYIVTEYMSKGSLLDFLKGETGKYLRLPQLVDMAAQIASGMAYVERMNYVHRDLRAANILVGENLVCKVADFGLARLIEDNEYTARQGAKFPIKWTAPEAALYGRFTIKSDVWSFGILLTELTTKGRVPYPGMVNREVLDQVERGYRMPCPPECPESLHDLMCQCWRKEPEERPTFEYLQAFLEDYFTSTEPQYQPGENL

[10] = biological target: Serine/threonine-protein kinase pim-1 (Homo sapiens) (UniProt P11309); assay: Inhibition of PIM1 (unknown origin) at 50 ug/ml by mobility shift assay relative to control
[11] = species: Homo sapiens; assay: Inhibition of PKA (unknown origin) at 50 ug/ml by mobility shift assay relative to control
[12] = biological target: ALK tyrosine kinase receptor (Homo sapiens) (UniProt Q9UM73); assay: Inhibition of ALK (unknown origin) at 50 ug/ml by mobility shift assay relative to control
ALK tyrosine kinase receptor (Homo sapiens), sequence (Q9UM73 19-1620 limits assumed): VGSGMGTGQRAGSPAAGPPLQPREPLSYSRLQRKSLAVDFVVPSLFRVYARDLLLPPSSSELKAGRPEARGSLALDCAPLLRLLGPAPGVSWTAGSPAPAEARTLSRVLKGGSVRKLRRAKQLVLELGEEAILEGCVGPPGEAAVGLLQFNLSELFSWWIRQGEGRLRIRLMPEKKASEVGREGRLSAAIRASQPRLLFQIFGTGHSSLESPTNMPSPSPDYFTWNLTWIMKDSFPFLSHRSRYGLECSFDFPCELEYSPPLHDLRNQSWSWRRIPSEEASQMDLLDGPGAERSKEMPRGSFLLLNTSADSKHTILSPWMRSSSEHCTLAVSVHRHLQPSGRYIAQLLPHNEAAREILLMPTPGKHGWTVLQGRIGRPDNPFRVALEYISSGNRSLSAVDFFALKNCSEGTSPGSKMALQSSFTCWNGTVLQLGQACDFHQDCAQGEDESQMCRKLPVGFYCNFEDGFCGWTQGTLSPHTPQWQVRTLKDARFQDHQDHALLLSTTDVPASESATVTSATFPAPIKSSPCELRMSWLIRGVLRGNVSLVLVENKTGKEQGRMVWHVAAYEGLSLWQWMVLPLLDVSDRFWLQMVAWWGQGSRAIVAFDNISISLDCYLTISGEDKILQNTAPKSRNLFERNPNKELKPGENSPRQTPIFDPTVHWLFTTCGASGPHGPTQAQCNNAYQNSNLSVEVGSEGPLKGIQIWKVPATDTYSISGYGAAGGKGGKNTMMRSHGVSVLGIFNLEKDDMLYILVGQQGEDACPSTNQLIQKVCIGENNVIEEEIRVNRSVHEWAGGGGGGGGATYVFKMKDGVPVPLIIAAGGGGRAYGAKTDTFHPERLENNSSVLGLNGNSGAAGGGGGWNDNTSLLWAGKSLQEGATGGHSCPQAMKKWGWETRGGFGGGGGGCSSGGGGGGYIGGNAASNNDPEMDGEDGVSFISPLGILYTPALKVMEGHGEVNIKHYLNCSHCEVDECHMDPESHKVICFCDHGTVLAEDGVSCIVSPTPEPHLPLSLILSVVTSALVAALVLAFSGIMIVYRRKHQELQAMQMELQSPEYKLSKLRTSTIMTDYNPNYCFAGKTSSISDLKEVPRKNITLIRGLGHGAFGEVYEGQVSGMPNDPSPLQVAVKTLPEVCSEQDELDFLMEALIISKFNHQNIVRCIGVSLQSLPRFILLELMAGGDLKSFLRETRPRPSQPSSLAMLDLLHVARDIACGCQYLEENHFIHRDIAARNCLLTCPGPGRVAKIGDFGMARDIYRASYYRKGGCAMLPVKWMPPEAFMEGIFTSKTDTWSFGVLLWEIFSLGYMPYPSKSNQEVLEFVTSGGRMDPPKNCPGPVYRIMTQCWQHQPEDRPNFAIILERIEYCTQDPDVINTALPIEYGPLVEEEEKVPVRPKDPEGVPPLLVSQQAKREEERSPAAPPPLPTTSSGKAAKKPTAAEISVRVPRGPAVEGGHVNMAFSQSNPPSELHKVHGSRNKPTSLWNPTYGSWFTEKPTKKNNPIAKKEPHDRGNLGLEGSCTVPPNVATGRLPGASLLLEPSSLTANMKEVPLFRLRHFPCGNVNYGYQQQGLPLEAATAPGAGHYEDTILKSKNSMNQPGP

[13] = biological target: Tyrosine-protein kinase SYK (Homo sapiens) (UniProt P43405); assay: Inhibition of SYK (unknown origin) at 50 ug/ml by mobility shift assay relative to control
[14] = biological target: T4, JAK3 (Tyrosine-protein kinase JAK3) (Homo sapiens, UniProt P52333); assay: Inhibition of JAK3 (unknown origin) at 50 ug/ml by mobility shift assay relative to control; conditions: JAK3 kinase (single protein, unknown origin)
T4 sequence (P52333 whole entry): T1 sequence (P52333 whole entry)

[15] = Inhibition of PKA (unknown origin) by mobility shift assay; set-up: species or system Homo sapiens

## CC(=O)c1ccc2c(c1)CC[C@H]1[C@@](CO)(C(=O)O)CCC[C@]21C
[1]
  IC50: > 100 µM

## CC(C)c1ccc2c(c1)CC[C@H]1[C@](C)(C(=O)O)CCC[C@]21C [DEHYDROABIETIC ACID]
[2]
  inhibition: 52.5%
[3]
  inhibition: 0.9%
[1]
  IC50: > 100 µM
[4]
  inhibition: 46.1%
[5]
  inhibition: -7.3%
[6]
  inhibition: 53.6%
[7]
  inhibition: 67.1%
[8]
  inhibition: 20.1%
[9]
  inhibition: 61.2%
[10]
  inhibition: 10.7%
[11]
  inhibition: 69.9%
[12]
  inhibition: 17.6%
[13]
  inhibition: 81%
[14]
  inhibition at 50 ug/ml: 74.9%

## CC(C)c1ccc2c(c1)CC[C@H]1[C@@](CO)(C(=O)O)CCC[C@]21C
[1]
  IC50: > 100 µM

## CC(C)(O)c1ccc2c(c1)CC[C@H]1[C@](C)(C(=O)O)CCC[C@]21C
[1]
  IC50: > 100 µM

## C=C(C)c1ccc2c(c1)CC[C@H]1[C@@](CO)(C(=O)O)CCC[C@]21C
[1]
  IC50: > 100 µM

## CC(C)c1cc2c(cc1O)[C@@]1(C)CCC[C@@](C)(C=O)[C@@H]1CC2 [18-OXOFERRUGINOL]
[1]
  IC50: > 100 µM

## CN[C@@H]1C[C@H]2O[C@@](C)([C@@H]1OC)n1c3ccccc3c3c4c(c5c6ccccc6n2c5c31)C(=O)NC4
[15]
  IC50: 0.0022 µM
